Values quoted from earlier work in patent US20040101539A1, “Aqueous dispersion of low-melting organic solids” (priority 2002, published 2004).

Conditions: at 25° C.

CCCCCCCCn1sc(Cl)c(Cl)c1=O [DCOIT, 4,5-dichloro-2-octyl-3(2H)-isothiazolone]
water solubility: 2 ppm
